Source: ChEMBL document CHEMBL5725202, “Substituted bicyclic compounds” (2016)

Target: Sphingosine 1-phosphate receptor 1 (Homo sapiens, UniProt P21453)
Assay: Binding Assay: Membranes were prepared from CHO cells expressing human S1P1. Cells pellets (1x10^9 cells/pellet) were suspended in buffer containing 20 mM HEPES (4-(2-hydroxyethyl)-1-piperazineethanesulfonic acid), pH 7.5, 50 mM NaCl, 2 mM EDTA (Ethylenediaminetetraacetic acid) and Protease Inhibitor cocktail (Roche), and disrupted on ice using the Polytron homogenizer. The homogenate was centrifuged at 20,000 rpm (48,000 g) and the supernatant was discarded. The membrane pellets were resuspended in buffer containing 50 mM HEPES, pH 7.5, 100 mM NaCl, 1 mM MgCl2, 2 mM EDTA and stored in aliquots at -80° C. after protein concentration determination.Membranes (2 ug/well) and 0.03 nM final concentration of 33P-S1P ligand (1 mCi/ml, Perkin elmer or American Radiolabeled Chemicals) diluted in assay buffer (50 mM HEPES, pH7.4, 5 mM MgCl2, 1 mM CaCl2, 0.5% fatty acid free BSA (bovine serum albumin), 1 mM NaF) were added to the compound plates (384 Falcon v-bottom plate (0.5 ul/well in a 11 point, 3-fold dilution). Binding was performed for 45 minutes at room temperature, terminated by collecting the membranes onto 384-well Millipore FB filter plates, and radioactivity was measured by TOPCOUNT. The competition data of the test compounds over a range of concentrations was plotted as percentage inhibition of radioligand specific binding.

Chain of Sphingosine 1-phosphate receptor 1 (P21453 whole entry): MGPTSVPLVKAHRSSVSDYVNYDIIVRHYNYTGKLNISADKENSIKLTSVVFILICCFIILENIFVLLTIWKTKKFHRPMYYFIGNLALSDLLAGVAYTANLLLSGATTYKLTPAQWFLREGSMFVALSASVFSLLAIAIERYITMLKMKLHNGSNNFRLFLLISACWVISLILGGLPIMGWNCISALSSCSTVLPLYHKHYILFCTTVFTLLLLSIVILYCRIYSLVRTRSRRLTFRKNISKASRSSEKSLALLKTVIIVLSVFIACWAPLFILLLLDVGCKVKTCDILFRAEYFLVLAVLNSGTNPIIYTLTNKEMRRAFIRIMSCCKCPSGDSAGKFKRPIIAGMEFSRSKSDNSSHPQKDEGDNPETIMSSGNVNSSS

IC50: < 10 nM
SMILES: CCCCCC[C@H]1Cc2ccc([C@@H]3CC[C@](N)(COP(=O)(O)O)C3)cc2CO1
